The values below come from US8426447B2, “Spiro-tricyclic ring compounds as beta-secretase modulators and methods of use” (Amgen Inc., priority 2008, dated 2013).

The target in test [1] is T1, BACE1 (Homo sapiens, UniProt P56817). The test is described as follows: In Vitro BACE Cell-based Assay (HEK cell assay): Aβ40 in conditioned medium of cells stably expressing Amyloid Precursor Protein, sandwich ELISA. To be noted: read-out: HEK cell assay. The gist of the method: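 Read-out is time-resolved fluorescence of Aβ40 in supernatant, captured by pAb40 and detected with biotinylated 6E10 plus Streptavidin-Europium. Cells stably expressing APP received compounds for 24 h over 10 concentrations starting at 100 μM or 10 μM, final DMSO 0.1%.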
T1 sequence (P56817 46-501, species assumed): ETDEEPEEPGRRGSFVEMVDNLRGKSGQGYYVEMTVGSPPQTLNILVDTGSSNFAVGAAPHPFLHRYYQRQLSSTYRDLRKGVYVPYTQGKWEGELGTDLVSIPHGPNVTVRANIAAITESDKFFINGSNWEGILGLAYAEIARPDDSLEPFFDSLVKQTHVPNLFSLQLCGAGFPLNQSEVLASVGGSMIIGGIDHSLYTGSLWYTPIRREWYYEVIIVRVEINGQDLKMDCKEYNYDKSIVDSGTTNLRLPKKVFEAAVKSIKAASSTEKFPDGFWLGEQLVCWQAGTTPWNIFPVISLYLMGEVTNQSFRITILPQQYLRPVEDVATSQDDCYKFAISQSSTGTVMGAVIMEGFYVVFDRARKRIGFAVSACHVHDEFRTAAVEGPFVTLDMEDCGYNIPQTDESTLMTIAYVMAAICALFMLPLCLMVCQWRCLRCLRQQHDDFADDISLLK
(An ELISA detects its analyte on a solid surface through an enzyme-linked reagent.)

The target in test [2] is T1, BACE1. As to the kind of experiment: In Vitro Enzymatic BACE FRET (Fluorescence Resonance Energy Transfer) Assay. To be noted: read-out: BACE1 FRET assay. It counts as biochemical. The gist of the method: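 Fluorescence read-out after Tris addition raises pH to neutrality and ends the reaction. Before that, a peptide substrate carrying fluorophore and quencher across the BACE cleavage site (50 nM) is incubated with enzyme for one hour at pH 4.2 in acetate containing 10% DMSO and sub-micellar genapol.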

Where [3] appears, read: HEK cell-based assay, Aβ40 in conditioned medium, IC50 class symbols.
The mark [4] stands for this setting: in vitro BACE FRET enzyme assay, IC50 class symbols.

`CCOC(=O)c1ccc(-c2ccc3c(c2)[C@]2(COC(N)=N2)c2cc(-c4cccnc4)ccc2O3)o1` [compound 725]: the IC50 is 0.1 to 1 µM on BACE1 [1] and under 0.1 µM on BACE1 [2].
As to `CC1(COc2cnc3c(c2)[C@]2(COC(N)=N2)c2cc(-c4cccc(F)c4F)ccc2O3)COC1` [compound 413], the IC50 at BACE1 [1] (setting [3]) and at BACE1 [2] (setting [4]) was under 0.1 µM in each case.
Consider `CC(C)(C#N)COc1ccc2c(c1)[C@]1(COC(N)=N1)c1cc(-c3cccnc3)ccc1O2` [Example 134, (S)-3-(2-amino-2′-(pyridin-3-yl)-5H-spiro[oxazole-4,9′-xanthene]-7′-yloxy)-2,2-dimethylpropanenitrile], for which the IC50 at BACE1 [1] (Table III, IC50's in uM ranges) was under 0.1 µM; on BACE1 [2] (Table III, IC50's in uM ranges) it was under 0.1 µM.
For `COC(C)(C)C#Cc1cnc2c(c1)[C@@]1(COC(N)=N1)c1cc(-c3ccncc3)ccc1O2` [compound 692], the IC50 on BACE1 [1] and at BACE1 [2] was over 5 µM throughout.
In the case of `COC(C)(C)C#Cc1cc(F)c2c(c1)[C@@]1(COC(N)=N1)c1cc(-c3cncnc3)ccc1O2` [compound 674], the IC50 at BACE1 [1] fell in the range of 1 to 5 µM; on BACE1 [2], 0.1 to 1 µM.
For the compound `CC(C)(C)COc1ccc2c(c1)[C@]1(CSC(N)=N1)c1cc(-c3cncnc3)ccc1O2` [compound 720], the IC50 at BACE1 [1] and at BACE1 [2] was under 0.1 µM throughout.
For the compound `NC1=N[C@@]2(CO1)c1cc(-c3cccnc3)ccc1Oc1ccc(-c3cncs3)cc12` [compound 660], the IC50 at BACE1 [1] (Table IV, class symbols) is under 0.1 µM; on BACE1 [2] (Table IV, class symbols), under 0.1 µM.
For `NC1=N[C@@]2(CO1)c1cc(-c3cccnc3)ccc1Oc1cnc(CCC3CC3)cc12` [compound 695], the IC50 was 0.1 to 1 µM at BACE1 [1] and under 0.1 µM on BACE1 [2].
With `NC1=N[C@]2(CO1)c1cc(-c3ccc(F)cc3)ccc1Oc1ncc(C3=CCOCC3)cc12` [compound 691], the IC50 at BACE1 [1] and at BACE1 [2] was 1 to 5 µM in each case.
With `CC(C)NC(=O)c1ccc2c(c1)[C@@]1(COC(N)=N1)c1cc(OCC(C)(C)C)ccc1O2` [compound 703], the IC50 on BACE1 [1] and at BACE1 [2] was under 0.1 µM throughout.
For `Cc1nn(C)c(C)c1-c1ccc2c(c1)[C@@]1(COC(N)=N1)c1cc(OCC(C)(C)C)ccc1O2` [compound 213], the IC50 was in the range of 1 to 5 µM on BACE1 [1] (Table III, IC50's in uM ranges) and 0.1 to 1 µM on BACE1 [2] (Table III, IC50's in uM ranges).
For `CC(C)(C)COc1ccc2c(c1)[C@]1(COC(N)=N1)c1cc(C3=CCOCC3)ccc1O2` [compound 755], the IC50 was in the range of 1 to 5 µM at BACE1 [1] and 0.1 to 1 µM on BACE1 [2].
Regarding `NC1=N[C@@]2(CO1)c1cc(-c3cncnc3)ccc1Oc1cnc(-c3ccccc3)cc12` [compound 546], the IC50 on BACE1 [1] (Table IV, class symbols) was under 0.1 µM; at BACE1 [2] (Table IV, class symbols), under 0.1 µM.
`NC1=N[C@@]2(CO1)c1cc(Br)ccc1Oc1ccc(-c3cccnc3)cc12` [compound 876]: the IC50 lay in the range of 1 to 5 µM on BACE1 [1] (Table IV, class symbols) and 0.1 to 1 µM at BACE1 [2] (Table IV, class symbols).
For the compound `CC(C)(C)COc1ccc2c(c1)[C@@]1(COC(N)=N1)c1cc(-c3cccnc3)cnc1O2` [Example 93, (5S)-7-(2,2-dimethylpropoxy)-3-(3-pyridinyl)spiro[chromeno[2,3-b]pyridine-5,4′-[1,3]oxazol]-2′-amine], the IC50 at BACE1 [1] (Table II, Aβ40, 24 h incubation) was 0.1 to 1 µM; at BACE1 [2] (Table II) it was 0.1 to 1 µM.
As to `NC1=N[C@@]2(CO1)c1cc(-c3cccnc3)ccc1Oc1ccc(-c3cncnc3)cc12` [compound 225], the IC50 at BACE1 [1] (Table III, IC50's in uM ranges) is under 0.1 µM; at BACE1 [2] (Table III, IC50's in uM ranges), under 0.1 µM.
As to `Cn1cc(-c2cc(F)c3c(c2)[C@]2(COC(N)=N2)c2cc(-c4cncnc4)ccc2O3)cn1` [compound 511], the IC50 on BACE1 [1] (HEK cells) and on BACE1 [2] was under 0.1 µM in each case.
On to `NC1=N[C@@]2(CO1)c1ccccc1Oc1ccc(-c3cc(F)cnc3Cl)cc12` [compound 619], for which the IC50 on BACE1 [1] (Table IV, class symbols) lay within 0.1 to 1 µM; on BACE1 [2] (Table IV, class symbols) it was 1 to 5 µM.
For `CN1CCN(c2cc3c(cn2)Oc2ccc(-c4cccnc4)cc2[C@@]32COC(N)=N2)CC1` [compound 444], the IC50 on BACE1 [1] (HEK cells) and at BACE1 [2] was under 0.1 µM in each case.
Regarding `COC(=O)/C=C/c1ccc2c(c1)[C@@]1(COC(N)=N1)c1cc(Br)ccc1O2` [compound 169], the IC50 at BACE1 [1] (Table III, IC50's in uM ranges) was over 5 µM; on BACE1 [2] (Table III, IC50's in uM ranges), 1 to 5 µM.
On to `CC1(COc2cnc3c(c2)[C@]2(COC(N)=N2)c2cc(-c4ccccc4Cl)ccc2O3)COC1` [compound 414], for which the values for the IC50 on BACE1 [1] (setting [3]) and at BACE1 [2] (setting [4]) were 0.1 to 1 µM and under 0.1 µM, respectively.
Take `CC(C)(C)COc1ccc2c(c1)[C@]1(COC(N)=N1)c1cc(C3CC3)ccc1O2` [compound 759]: the figures for the IC50 on BACE1 [1] and on BACE1 [2] were 1 to 5 µM and 0.1 to 1 µM, respectively.
Consider `NC1=N[C@@]2(CO1)c1cc(-c3cc(Cl)ccc3F)ccc1Oc1cnc(-c3ccncc3)cc12` [compound 330], for which the IC50 on BACE1 [1] (setting [3]) and on BACE1 [2] (setting [4]) was under 0.1 µM in each case.
In the case of `NC1=N[C@]2(CO1)c1cc(C3=CCOCC3)ccc1Oc1ccc(-c3cccnc3)cc12` [compound 715], the IC50 on BACE1 [1] and at BACE1 [2] was under 0.1 µM throughout.
With `NC1=N[C@@]2(CO1)c1cc(-c3cc(Cl)ccc3F)ccc1Oc1ncc(C3CCOCC3)cc12` [compound 404], the IC50 on BACE1 [1] (setting [3]) and at BACE1 [2] (setting [4]) was under 0.1 µM each time.
On to `CC(C)(O)C#Cc1ccc2c(c1)[C@@]1(COC(N)=N1)c1cc(C#CC(C)(C)O)cnc1O2` [compound 935], for which the IC50 on BACE1 [1] and at BACE1 [2] was 0.1 to 1 µM throughout.
With `CC(C)(C)COc1ccc2c(c1)C1(COC(N)=N1)c1cc(NC(=O)c3ccc(Cl)cn3)ccc1O2` (stereo not drawn) [compound 522], the IC50 at BACE1 [1] (HEK cells) and at BACE1 [2] was under 0.1 µM throughout.
Turning to `COCC(=O)Nc1ccc2c(c1)[C@@]1(COC(N)=N1)c1cc(-c3ccccc3)ccc1O2` [compound 533], the IC50 was under 0.1 µM at BACE1 [1] (Table IV, class symbols) and under 0.1 µM on BACE1 [2] (Table IV, class symbols).
For `CC(C)(C)COc1ccc2c(c1)[C@]1(COC(N)=N1)c1cc(-c3cccnc3C(F)(F)F)ccc1O2` [compound 911], the IC50 on BACE1 [1] (Table IV, class symbols) is over 5 µM; on BACE1 [2] (Table IV, class symbols), 0.1 to 1 µM.
On to `CC1(C#Cc2cc(F)c3c(c2)[C@]2(COC(N)=N2)c2cc(-c4cncnc4)ccc2O3)COC1` [compound 475], for which the IC50 on BACE1 [1] (HEK cells) and on BACE1 [2] was under 0.1 µM each time.
For the compound `CC1(C#Cc2cnc3c(c2)[C@]2(COC(N)=N2)c2cc(-c4cc(Cl)ccc4F)ccc2O3)COC1` [compound 521, (5S)-7-(5-chloro-2-fluorophenyl)-3-((3-methyl-3-oxetanyl)ethynyl)spiro[chromeno[2,3-b]pyridine-5,4′-[1,3]oxazol]-2′-amine], the IC50 on BACE1 [1] (HEK cells) and at BACE1 [2] was under 0.1 µM in each case.
Regarding `Cn1cncc1-c1ccc2c(c1)[C@]1(COC(N)=N1)c1cc(OCC(C)(C)C)ccc1O2` [compound 187], the IC50 on BACE1 [1] (Table III, IC50's in uM ranges) was in the range of 1 to 5 µM; at BACE1 [2] (Table III, IC50's in uM ranges), 1 to 5 µM.
For `CC(C)(C)OC(=O)Cc1ccc2c(c1)[C@@]1(COC(N)=N1)c1cc(Br)ccc1O2` [compound 858], the IC50 on BACE1 [1] (Table IV, class symbols) was over 5 µM; at BACE1 [2] (Table IV, class symbols), over 5 µM.
As for `COc1ccc2c(c1)[C@]1(COC(N)=N1)c1cc(NC(=O)c3ccc(Cl)nc3)ccc1O2` [compound 617], the IC50 fell in the range of 1 to 5 µM on BACE1 [1] (Table IV, class symbols) and 1 to 5 µM on BACE1 [2] (Table IV, class symbols).
For the compound `CC(C)(O)COc1ccc2c(c1)[C@]1(COC(N)=N1)c1cc(C#CC3CC3)ccc1O2` [compound 937], the IC50 at BACE1 [1] is 0.1 to 1 µM; on BACE1 [2], under 0.1 µM.
As to `COc1ccc2c(c1)C1(COC(N)=N1)c1cc(-c3cccc(C)c3)ccc1O2` (stereo not drawn) [Example 20, 2′-methoxy-7′-(3-methylphenyl)spiro[1,3-oxazole-4,9′-xanthen]-2-amine], the IC50 at BACE1 [1] (Table 1, Aβ40, 24 h incubation) was over 5 µM; on BACE1 [2] (Table 1), 1 to 5 µM.
